# Measurements from patent US8057810B2, “Peptide substance revealing an immunogeroprotective effect, pharmaceutical composition on its base and the method of its application” (priority 2006, dated 2011).
# Marks after values point to notes of the source that are not given here. Residues, ends and D or L forms follow the SMILES beside them.
# Columns and labels:
# [1] = tested on: lymphocytes taken from very old patients; assay: Chromatin in blood lymphocytes of old patients in vitro; format: cell-based, human; settings: 0.01 μg/ml; lymphocytes of patients aged 75-88
# Method: Peptide H-Glu-Asp-Pro-OH effect on the system of chromatin domains was studied in old people lymphocytes cultures, in particular on chromatin reactivation such as in deheterochromatinization of heterocliromatin satellite filaments (activity of synthetic processes in ribosomal genes, total heterochromatin, structural heterochromatin (changeability of C-blocks of the 1, 9 and 16 chromosomes) and optional heterochromatin.
# The studies were conducted on the chromosomes of 150 PHA-stimulated and 40 PHA-non-stimulated lymphocyte cultures, obtained from 95 healthy patients aged 75-88 (control—25 donors aged 20-40). There were studied 2 cell cultures from each patient —one intact and one with peptide H-Glu-Asp-Pro-OH added into the cultural medium up to the ultimate concentration of 0.01 μg/ml. To study each parameter there were analyzed from 30 up to 50 metaphases of both intact lymphocyte cultures and those with added peptide (10 cultures of each).
# To estimate ribosomal genes activity in intact cultures and under the effect of the peptide there were used methods of Ag-banding and of the registration of nucleolar organizers regions (NOR) of acrocentric chromosomes. Changeability of the activity level was estimated comparing two binomial totals.
# Polymorphism of structural C-heterochromatin of the 1, 9 and 16 chromosomes was estimated. For comparative analysis of C-stained chromosomes of intact cultures and those treated with the peptide there was used a standard system of classification, according to which the size of the 1, 9, 16 chromosomes C-segments were compared to the chromosome 16 short leg and the results were divided into 5 categories—a, b, c, d, e. The changeability of facultative heterochromatin was estimated according to the frequency of sister chromatid exchange (SCE) in intact and peptide-treated lymphocytes.
# [2] = tested on: rat thymus cells; assay: Premature aging induced by ionizing irradiation: rat thymus morphology and morphometry; format: in vivo, Wistar rats
# Method: The experiments were conducted on 40 male Wistar rats 2 months old, weighing 180-210 g. Premature aging was modeled by gamma irradiation using LUCH-1 machine (source 60Co; dose output 17.166×10^−4 Gy/sec.). The animals were irradiated in the dose of 6 Gy daily for 5 days. All the animals were divided into 6 groups:
# 2 and 2a—irradiated rats;
# 3 and 3a—irradiated rats, subjected to subcutaneous injection of peptide H-Glu-Asp-Pro-OH in the dose of 0.5 μg per animal in 0.25 ml of sterile 0.9% NaCl solution in 24 hours after the first performance of irradiation for 10 days.
# Animals of the 2 and 2a group received 0.9% NaCl solution in the same volume and following the same scheme. Slaughtering of the animals and extraction of their thymus were conducted using nembutal anaesthesia (50 mg/kg). Thymus in groups 1-3 was extracted on the 14th day after the experiment onset, in the 1a-3a groups—on the 21 day after the experiment onset.
# Fragments of the extracted thymus were fixed for 24 hours in Buen sour liquid for optic microscopy. Material dehydration and filling it in with paraffin for optic microscopy were conducted according to conventional techniques. Paraffin sections (7 μm) were placed on a microscope slide covered with a poly-L-lysine film (Sigma). Histological and immunohistochemical examinations were carried out using Jenamed-2 microscope (Zeiss).
# Review staining of the preparations was conducted by hematoxylin-eosin. Mast cells were selectively stained using 1% toluidine blue (Fluka) solution in 0.5M HCl with pH 0.5.
# For electron microscopy fragments of the extracted thymus were fixed according to Karnovsky's method. […]
# The morphometric studies were conducted by means of the system for computer analysis of microscopic images Imstar using Morphostar and Colquant-2 software, in accordance with the basic principles of stereology and morphometry. […] Proliferative activity index (IPCNA) was calculated using the following formula: IPCNA(%)=NPCNA/Nnuclei×100.
# [3] = tested on: elderly and old patients with age-related immune status decline; assay: Clinical application in elderly and old patients exposed to small doses of ionizing irradiation; format: in vivo, human
# Method: The efficacy of pharmaceutical composition, containing an effective amount of peptide H-Glu-Asp-Pro-OH as an active base, was studied in elderly and old patients, exposed to long-term ionizing irradiation in small doses.
# The main group consisted of 38 elderly patients (18 men, 20 women), who were divided into 3 groups according to the intensity of immune status changes. […] Elderly and old patients with age-related decrease of the immune functions were injected with the pharmaceutical composition containing peptide H-Glu-Asp-Pro-OH in the dose of 10.0 μg in 1 ml of sterile 0.9% NaCl solution intramuscularly, daily, once a day for 10 days. 32 control group patients (14 men, 18 women) received only conventional treatment. The patients of both groups were from 62 to 83 years old. The efficacy of the pharmaceutical composition containing peptide H-Glu-Asp-Pro-OH was estimated judging by the dynamics of the patients' complaints and a set of objective indices, such as common blood and urine tests, immunologic study of peripheral blood (the number of T- and B-lymphocytes was estimated using the immunofluorescence method with monoclonal antibodies to CD3, CD4, CD8, CD20 differentiation lymphocytes antigens; content of immunoglobulins of different classes—using Mancini's method of radial immunodiffusion in the gel, T-lymphocytes functional activity—in lymphocyte migration inhibition reaction (LMIR) with Con A.
# [4] = group 3: irradiated rats, 0.5 μg per animal s.c. for 10 days, 14th day
# [5] = patients 62-83 years, after treatment including the peptide, i.m. daily for 10 days
structure (smiles),measurement,setting,value
"N[C@@H](CCC(=O)O)C(=O)N[C@@H](CC(=O)O)C(=O)N1CCC[C@H]1C(=O)O [Peptide H-Glu-Asp-Pro-OH, glutamyl-aspartyl-proline] (H-Glu-Asp-Pro-OH)",Associated acrocentric chromosomes (per cell),[1],2.32 ± 0.12 per cell
same,Deheterochromatinization of optional heterochromatin - SCE (per cell),[1],8.4 ± 0.5 per cell
same,"Structural heterochromatin (C-blocks), chromosome 1",[1],Deheterochro-
same,"Structural heterochromatin (C-blocks), chromosome 9",[1],Deheterochro-
same,"Structural heterochromatin (C-blocks), chromosome 16",[1],Stable
same,Total heterochromatin,[1],Deheterochro-
same,Number of mast cells in the thymus,[2]; [4],32±5 per 1 mm^2
same,Proliferative activity index (IPCNA) in the thymus,[2]; [4],55%
same,Involution changes of the thymus (microscopic analysis) vs irradiated groups 2 and 2a,"[2]; groups 3, 3a: irradiated rats, 0.5 μg per animal s.c., 14th and 21st day",less pronounced involution changes
same,Patients in whom disordered immune system indices were normalized,"[3]; composition in different doses with symptomatic means, 56% in the control group",82%
same,Side effects in patients,"[3]; elderly and old patients, composition in different doses","does not exert any side effects, complications or drug addiction"
same,General state and asthenic syndrome after the treatment course,[3]; elderly people in the three main groups,significant improvement of the general state and reduction of the asthenic syndrome
same,"CD3+, %",[3]; [5],55.7 ± 2.6 %
same,"CD3+, ×10^9/l",[3]; [5],1.86 ± 0.05 ×10^9/l
same,"CD4+, %",[3]; [5],34.6 ± 2.0 %
same,"CD4+, ×10^9/l",[3]; [5],0.67 ± 0.09 ×10^9/l
same,CD4+/CD8+,[3]; [5],1.4*#
same,"CD8+, %",[3]; [5],24.9 ± 1.8%
same,"CD8+, ×10^9/l",[3]; [5],0.46 ± 0.07 ×10^9/l
same,"CD20+, %",[3]; [5],12.0 ± 0.7%
same,"CD20+, ×10^9/l",[3]; [5],0.20 ± 0.01 ×10^9/l
same,IgA,[3]; [5],2.1 ± 0.3 g/L
same,IgG,[3]; [5],14.9 ± 1.7 g/L
same,IgM,[3]; [5],1.64 ± 0.06 g/L
same,LMIR (lymphocyte migration inhibition reaction with Con A),[3]; [5],70.4 ± 4.9 %
same,Leukocytes,[3]; [5],5.6 ± 0.1 ×10^9/l
same,"Lymphocytes, %",[3]; [5],35.1 ± 2.1%
same,"Lymphocytes, ×10^9/l",[3]; [5],1.87 ± 0.05 ×10^9/l
